Earlier results, collected in patent US8101199B2, “Des-methyl-tocopherol therapy for restenosis prevention” (Celonova Biosciences, Inc., priority 2003, dated 2012).

Columns and labels:
[1] = relative to d-Alpha-Toc = 100
[2] = tested on: previously dilated artery segment; details: 1200 IU/day orally for 4 months after PTCA
[3] = tested on: coronary restenosis; details: clinical trials
[4] = tested on: femoral arteries; details: rabbit; three weeks after angioplasty; oral treatment beginning 19 d before angioplasty
[5] = tested on: native coronary vessels; details: addition of 200 mg for all subjects during the study
[6] = tested on: rabbit vascular smooth muscle cells
[7] = tested on: cyclooxygenase

In the case of `CC(=O)Oc1c(C)c(C)c2c(c1C)CCC(C)(CCCC(C)CCCC(C)CCCC(C)C)O2` (racemic) [dl-ALpha-Tocopherol acet.], the “Antioxidant Activity (d-Alpha-Toc = 100)” value [1] is listed as 0.
In the case of `Cc1c(C)c2c(c(C)c1O)CCC(C)(CCCC(C)CCCC(C)CCCC(C)C)O2` (racemic) [dl-Alpha-Tocopherol], the “overall incidence of restenosis defined by an abnormal angiogram or thallium test or exercise stress test” value [2] is listed as 34.6%, the “restenosis (angiographically documented)” value [2] is listed as 35.5% and the “Antioxidant Activity (d-Alpha-Toc = 100)” value [1] is listed as 100.
In the case of `CC(C)(Sc1cc(C(C)(C)C)c(O)c(C(C)(C)C)c1)Sc1cc(C(C)(C)C)c(O)c(C(C)(C)C)c1` [Probucol], the “prevention of coronary restenosis after balloon angioplasty” value [3] is listed as “shown to prevent coronary restenosis”.
In the case of `Cc1c(C)c2c(c(C)c1O)CC[C@@](C)(CCC[C@H](C)CCC[C@H](C)CCCC(C)C)O2` [alpha-tocopherol, Alpha-Tocopherol], the “angiographically determined minimum luminal diameter” value [4] is listed as 1.38+/−0.29 mm, the “cross-sectional area of the intima-media” value [4] is listed as 0.62+/−0.25 mm2 and the “effect on restenosis rates” value [5] is listed as “no effect on restenosis rates”. The “DNA synthesis stimulated by oxidized low density lipoprotein” value [6] was “inhibited DNA synthesis”.
In the case of `CC(=O)Oc1c(C)c(C)c2c(c1C)CC[C@@](C)(CCC[C@H](C)CCC[C@H](C)CCCC(C)C)O2` [d-Alpha-Tocopherol acet.], the “Antioxidant Activity (d-Alpha-Toc = 100)” value [1] is given as 0.
In the case of `Cc1c(C)c2c(c(C)c1O)CC[C@@](C)(CCC[C@H](C)CCC[C@H](C)CCCC(C)C)O2` [d-Alpha-Tocopherol], the “Antioxidant Activity (d-Alpha-Toc = 100)” value [1] is listed as 100.
For `Cc1cc(O)c(C)c2c1O[C@](C)(CCC[C@H](C)CCC[C@H](C)CCCC(C)C)CC2` [d-Beta-Tocopherol], the “Antioxidant Activity (d-Alpha-Toc = 100)” value [1] is given as 130.
For `Cc1cc(O)cc2c1O[C@](C)(CCC[C@H](C)CCC[C@H](C)CCCC(C)C)CC2` [d-Delta-Tocopherol], the “Antioxidant Activity (d-Alpha-Toc = 100)” value [1] is given as 300–500.
In the case of `Cc1c(O)cc2c(c1C)O[C@](C)(CCC[C@H](C)CCC[C@H](C)CCCC(C)C)CC2` [d-Gamma-Tocopherol], the “Antioxidant Activity (d-Alpha-Toc = 100)” value [1] is given as 200.
For `Cc1c(O)cc2c(c1C)OC(C)(CCC(=O)O)CC2` (stereo not drawn) [gamma-CEHC, 2,7,8-trimethyl-2-(beta-carboxyethyl)-6-hydroxychroman], the cyclooxygenase activity inhibition [7] is given as “inhibit cyclooxygenase activity”.
For `Cc1c(O)cc2c(c1C)O[C@](C)(CCC[C@H](C)CCC[C@H](C)CCCC(C)C)CC2` [gamma-tocopherol, Gamma-Tocopherol], the cyclooxygenase activity inhibition [7] is given as “inhibit cyclooxygenase activity”.
